Like-named read-outs stand apart in the source and are kept apart here.
Key:
Assay type in all cases: in vivo
[1] = tested on: blackgrass (Alopecurus myosuroides); assay: Test B postemergence; settings: Alopecurus myosuroides, post-emergence
Outline: (§1)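 Visual rating, 0 (no effect) to 100 (complete control) versus controls, taken 13–15 days after treatment in greenhouse. Compounds formulated in non-phytotoxic solvent plus surfactant; pre: sprayed after seeding; post: plants at 1- to 4-leaf stage, 2–18 cm.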

wild oat (Avena fatua) = assay: Test B postemergence; settings: Avena fatua, post-emergence
Outline: as §1

[2] = tested on: barnyardgrass (Echinochloa crus-galli); assay: Test B flooded paddy test; settings: Echinochloa crus-galli, Flood, 1000 g ai/ha; scale 0 (no effect) to 100 (complete control); read-out: Plant response rating, Barnyardgrass
Outline: (§2)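 Rice, umbrella sedge, duck salad and barnyardgrass grown to 2-leaf stage under flooded paddy conditions and treated with formulated test chemicals. Kept in greenhouse 13–15 days, then visually rated against untreated controls on a 0–100 scale (0 no effect, 100 complete control).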

[3] = tested on: umbrella sedge (Cyperus difformis); assay: Test B flooded paddy test; settings: Cyperus difformis, Flood, 1000 g ai/ha; scale 0 to 100; read-out: Plant response rating, Sedge, Umbrella
Outline: as §2

[4] = tested on: duck salad (Heteranthera limosa); assay: Test B flooded paddy test; settings: Heteranthera limosa, Flood, 1000 g ai/ha; scale 0 to 100; read-out: Plant response rating, Ducksalad
Outline: as §2

rice (Oryza sativa) = assay: Test B flooded paddy test; settings: Oryza sativa, Flood, 1000 g ai/ha; scale 0 to 100; read-out: Plant response rating, Rice
Outline: as §2

corn (Zea mays) = assay: Test B pre/postemergence; settings: Zea mays
Outline: as §1

[5] = tested on: barnyardgrass (Echinochloa crus-galli); assay: Test B pre/postemergence; settings: Echinochloa crus-galli; for pest or weed control at 125 g/ha: 125 g ai/ha; for pest or weed control at 500 g/ha: 500 g ai/ha
Outline: as §1

[6] = tested on: lambsquarters (Chenopodium album); assay: Test B pre/postemergence; settings: Chenopodium album; for pest or weed control at 125 g/ha: 125 g ai/ha; for pest or weed control at 500 g/ha: 500 g ai/ha
Outline: as §1

[7] = tested on: giant foxtail (Setaria faberii); assay: Test B pre/postemergence; settings: Setaria faberi; for pest or weed control at 125 g/ha: 125 g ai/ha; for pest or weed control at 500 g/ha: 500 g ai/ha
Outline: as §1

[8] = tested on: morningglory (Ipomoea coccinea); assay: Test B pre/postemergence; settings: Ipomoea; for pest or weed control at 125 g/ha: 125 g ai/ha; for pest or weed control at 500 g/ha: 500 g ai/ha
Outline: as §1

[9] = tested on: velvetleaf (Abutilon theophrasti); assay: Test B pre/postemergence; settings: Abutilon theophrasti; for pest or weed control at 125 g/ha: 125 g ai/ha; for pest or weed control at 500 g/ha: 500 g ai/ha
Outline: as §1

[10] = tested on: wheat (Triticum aestivum); assay: Test B pre/postemergence; settings: Triticum aestivum; for plant injury at 125 g/ha: 125 g ai/ha; for plant injury at 500 g/ha: 500 g ai/ha
Outline: as §1

[11] = tested on: crabgrass (Digitaria sanguinalis); assay: Test B pre/postemergence; settings: Digitaria sanguinalis; for pest or weed control at 125 g/ha: 125 g ai/ha; for pest or weed control at 500 g/ha: 500 g ai/ha
Outline: as §1

[12] = tested on: cocklebur (Xanthium strumarium); assay: Test B pre/postemergence; settings: Xanthium strumarium; for pest or weed control at 125 g/ha: 125 g ai/ha; for pest or weed control at 500 g/ha: 500 g ai/ha
Outline: as §1

[13] = tested on: Surinam grass (Brachiaria decumbens); assay: Test B pre/postemergence; settings: Urochloa decumbens; for pest or weed control at 125 g/ha: 125 g ai/ha; for pest or weed control at 500 g/ha: 500 g ai/ha
Outline: as §1

[14] = tested on: pigweed (Amaranthus retroflexus); assay: Test B pre/postemergence; settings: Amaranthus retroflexus; for pest or weed control at 125 g/ha: 125 g ai/ha; for pest or weed control at 500 g/ha: 500 g ai/ha
Outline: as §1

COC(=O)c1nc(C2CC2)nc(N)c1I [Compound 7]
10%: pest or weed control at 125 g/ha ([11]; post-emergence, Postemergence, scale 0 to 100 (0 no effect, 100 complete control), read-out: Crabgrass plant response rating)
60%: pest or weed control at 125 g/ha ([1]; 125 g ai/ha, scale 0 to 100 (0 no effect, 100 complete control), read-out: Blackgrass plant response rating)
30%: Corn plant response rating (crop injury, 0 = no effect, 100 = complete kill) at 500 g/ha (corn (Zea mays); post-emergence, Postemergence, 500 g ai/ha, scale 0 to 100) | pest or weed control at 500 g/ha ([5]; post-emergence, Postemergence, scale 0 to 100, read-out: Plant response rating, Barnyardgrass) | pest or weed control at 500 g/ha ([5]; pre-emergence, Preemergence, scale 0 to 100 (0 no effect, 100 complete control), read-out: Barnyardgrass plant response rating) | plant injury at 500 g/ha ([10]; pre-emergence, Preemergence, scale 0 to 100 (0 no effect, 100 complete control), read-out: Wheat plant response rating) | pest or weed control at 500 g/ha ([11]; post-emergence, Postemergence, scale 0 to 100, read-out: Plant response rating, Crabgrass) | pest or weed control at 500 g/ha ([11]; pre-emergence, Preemergence, scale 0 to 100 (0 no effect, 100 complete control), read-out: Crabgrass plant response rating)
100%: pest or weed control at 500 g/ha ([6]; post-emergence, Postemergence, scale 0 to 100, read-out: Plant response rating, Lambsquarters) | pest or weed control at 500 g/ha ([12]; post-emergence, Postemergence, scale 0 to 100, read-out: Plant response rating, Cocklebur)
50%: pest or weed control at 125 g/ha ([9]; post-emergence, Postemergence, scale 0 to 100 (0 no effect, 100 complete control), read-out: Velvetleaf plant response rating) | pest or weed control at 125 g/ha ([9]; pre-emergence, Preemergence, scale 0 to 100 (0 no effect, 100 complete control), read-out: Plant response rating, Velvetleaf) | plant injury at 125 g/ha ([10]; post-emergence, Postemergence, scale 0 to 100 (0 no effect, 100 complete control), read-out: Wheat plant response rating)
90%: pest or weed control at 500 g/ha ([6]; pre-emergence, Preemergence, scale 0 to 100 (0 no effect, 100 complete control), read-out: Lambsquarters plant response rating) | pest or weed control at 500 g/ha ([8]; post-emergence, Postemergence, scale 0 to 100, read-out: Plant response rating, Morningglory) | pest or weed control at 500 g/ha ([9]; post-emergence, Postemergence, scale 0 to 100, read-out: Plant response rating, Velvetleaf) | pest or weed control at 125 g/ha ([12]; post-emergence, Postemergence, scale 0 to 100 (0 no effect, 100 complete control), read-out: Cocklebur plant response rating) | pest or weed control at 500 g/ha ([14]; post-emergence, Postemergence, scale 0 to 100, read-out: Plant response rating, Pigweed) | pest or weed control at 125 g/ha ([14]; pre-emergence, Preemergence, scale 0 to 100 (0 no effect, 100 complete control), read-out: Plant response rating, Pigweed) | pest or weed control at 500 g/ha ([14]; pre-emergence, Preemergence, scale 0 to 100 (0 no effect, 100 complete control), read-out: Pigweed plant response rating)
0%: pest or weed control at 1000 g/ha [3] | pest or weed control at 1000 g/ha [4] | plant injury at 1000 g/ha (rice (Oryza sativa)) | plant injury at 125 g/ha (corn (Zea mays); post-emergence, Postemergence, 125 g ai/ha, scale 0 to 100 (0 no effect, 100 complete control), read-out: Corn plant response rating) | Corn plant response rating (crop injury, 0 = no effect, 100 = complete kill) at 125 g/ha (corn (Zea mays); pre-emergence, Preemergence, 125 g ai/ha, scale 0 to 100 (0 no effect, 100 complete control)) | plant injury at 500 g/ha (corn (Zea mays); pre-emergence, Preemergence, 500 g ai/ha, scale 0 to 100 (0 no effect, 100 complete control), read-out: Corn plant response rating) | pest or weed control at 125 g/ha ([5]; post-emergence, Postemergence, scale 0 to 100 (0 no effect, 100 complete control), read-out: Barnyardgrass plant response rating) | pest or weed control at 125 g/ha ([5]; pre-emergence, Preemergence, scale 0 to 100 (0 no effect, 100 complete control), read-out: Plant response rating, Barnyardgrass) | pest or weed control at 125 g/ha ([7]; pre-emergence, Preemergence, scale 0 to 100 (0 no effect, 100 complete control), read-out: Plant response rating, Foxtail, Giant) | pest or weed control at 500 g/ha ([7]; pre-emergence, Preemergence, scale 0 to 100 (0 no effect, 100 complete control), read-out: Foxtail, Giant plant response rating) | plant injury at 125 g/ha ([10]; pre-emergence, Preemergence, scale 0 to 100 (0 no effect, 100 complete control), read-out: Plant response rating, Wheat) | pest or weed control at 125 g/ha ([11]; pre-emergence, Preemergence, scale 0 to 100 (0 no effect, 100 complete control), read-out: Plant response rating, Crabgrass) | pest or weed control at 125 g/ha ([13]; post-emergence, Postemergence, scale 0 to 100 (0 no effect, 100 complete control), read-out: Surinam Grass plant response rating) | pest or weed control at 125 g/ha ([13]; pre-emergence, Preemergence, scale 0 to 100 (0 no effect, 100 complete control), read-out: Plant response rating, Surinam Grass) | pest or weed control at 500 g/ha ([13]; pre-emergence, Preemergence, scale 0 to 100 (0 no effect, 100 complete control), read-out: Surinam Grass plant response rating) | pest or weed control at 125 g/ha ([14]; post-emergence, Postemergence, scale 0 to 100 (0 no effect, 100 complete control), read-out: Pigweed plant response rating)
20%: pest or weed control at 1000 g/ha [2] | pest or weed control at 125 g/ha ([7]; post-emergence, Postemergence, scale 0 to 100 (0 no effect, 100 complete control), read-out: Foxtail, Giant plant response rating) | pest or weed control at 500 g/ha ([13]; post-emergence, Postemergence, scale 0 to 100, read-out: Plant response rating, Surinam Grass)
70%: pest or weed control at 500 g/ha (wild oat (Avena fatua); 500 g ai/ha, scale 0 to 100, read-out: Plant response rating, Oat, Wild) | pest or weed control at 125 g/ha ([8]; pre-emergence, Preemergence, scale 0 to 100 (0 no effect, 100 complete control), read-out: Plant response rating, Morningglory) | pest or weed control at 125 g/ha ([12]; pre-emergence, Preemergence, scale 0 to 100 (0 no effect, 100 complete control), read-out: Plant response rating, Cocklebur)
80%: pest or weed control at 500 g/ha ([1]; 500 g ai/ha, scale 0 to 100, read-out: Plant response rating, Blackgrass) | pest or weed control at 125 g/ha ([6]; post-emergence, Postemergence, scale 0 to 100 (0 no effect, 100 complete control), read-out: Lambsquarters plant response rating) | pest or weed control at 125 g/ha ([6]; pre-emergence, Preemergence, scale 0 to 100 (0 no effect, 100 complete control), read-out: Plant response rating, Lambsquarters) | pest or weed control at 125 g/ha ([8]; post-emergence, Postemergence, scale 0 to 100 (0 no effect, 100 complete control), read-out: Morningglory plant response rating) | pest or weed control at 500 g/ha ([8]; pre-emergence, Preemergence, scale 0 to 100 (0 no effect, 100 complete control), read-out: Morningglory plant response rating) | pest or weed control at 500 g/ha ([9]; pre-emergence, Preemergence, scale 0 to 100 (0 no effect, 100 complete control), read-out: Velvetleaf plant response rating) | plant injury at 500 g/ha ([10]; post-emergence, Postemergence, scale 0 to 100, read-out: Plant response rating, Wheat) | pest or weed control at 500 g/ha ([12]; pre-emergence, Preemergence, scale 0 to 100 (0 no effect, 100 complete control), read-out: Cocklebur plant response rating)
40%: pest or weed control at 125 g/ha (wild oat (Avena fatua); 125 g ai/ha, scale 0 to 100 (0 no effect, 100 complete control), read-out: Oat, Wild plant response rating) | pest or weed control at 500 g/ha ([7]; post-emergence, Postemergence, scale 0 to 100, read-out: Plant response rating, Foxtail, Giant)
